According to US20200197320A1, “DRUG CARRIER AND DRUG DELIVERY SYSTEM THEREOF” (NATIONAL TSING HUA UNIVERSITY, priority 2018, published 2020):

Tested on: MDA-MB-231 human breast cancer cells
Assay: Material cytotoxicity by MTT assay
Conditions: under the condition of the present disclosure, including products after UV irradiation
Experimental: Then the drug delivery systems of Example 1 with different concentrations are tested for their cytotoxicity. […] The MDA-MB-231 human breast cancer cells are treated with 0.1, 1, 2, 5, 10 and 20 μg/mL of the drug delivery system of Example 1 for 6 hours, respectively, and then further incubated for another 24 hours. The cell viability is measured by the MTT assay.

For OCc1ccc2ccc3cccc4ccc1c2c34 [pyrenemethanol], the “harm to the cells” value was “not harmful”.
